From US20200055817A1 (AbbVie Deutschland GmbH & Co. KG, priority 2016, published 2020)

Columns and labels:
Format in all cases: cell-based
[1] = biological target: T1, human EDG8 (S1PR5) receptor (Homo sapiens, UniProt Q9H228); test: Aequorin assay, agonist potency, CHO-A21-EDG8#12 cells; settings: agonist mode, aequorin luminescence; read-out: S1P5 EC50 range #
T1 construct: carries the transgenes human EDG8 (S1PR5) receptor (Acession number NP_110387.1); expressed in transfected cells; host or cells: CHO-A21-EDG8#12 (CHO clone co-expressing mitochondrial aequorin and chimaeric Gaqi5)
Procedure, shortened: (§1)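 CHO cells coexpressing receptor, mitochondrial aequorin and Gαqi5 (S1P3 pool: GNA16) were loaded overnight at RT with 5 μM coelenterazine h in 0.1% fatty-acid-free BSA buffer. Cells were injected onto compound, luminescence recorded 90 s and integrated, normalised to digitonin or 20 μM ATP; sigmoidal fit.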

[2] = biological target: T2, human EDG1 (S1PR1) receptor (Homo sapiens, UniProt P21453); test: Aequorin assay, agonist potency, CHO-A21-Edg1#17 cells; settings: agonist mode, aequorin luminescence; read-out: S1P1 EC50
T2 construct: expressed in transfected cells; host or cells: CHO-A21-Edg1#17 (CHO clone co-expressing mitochondrial aequorin and chimaeric Gaqi5)
Procedure, shortened: as §1

[3] = biological target: T3, S1P4 (Homo sapiens, UniProt O95977); test: Aequorin assay, agonist potency, S1P4; settings: agonist mode, aequorin luminescence
T3 sequence (O95977 1-384): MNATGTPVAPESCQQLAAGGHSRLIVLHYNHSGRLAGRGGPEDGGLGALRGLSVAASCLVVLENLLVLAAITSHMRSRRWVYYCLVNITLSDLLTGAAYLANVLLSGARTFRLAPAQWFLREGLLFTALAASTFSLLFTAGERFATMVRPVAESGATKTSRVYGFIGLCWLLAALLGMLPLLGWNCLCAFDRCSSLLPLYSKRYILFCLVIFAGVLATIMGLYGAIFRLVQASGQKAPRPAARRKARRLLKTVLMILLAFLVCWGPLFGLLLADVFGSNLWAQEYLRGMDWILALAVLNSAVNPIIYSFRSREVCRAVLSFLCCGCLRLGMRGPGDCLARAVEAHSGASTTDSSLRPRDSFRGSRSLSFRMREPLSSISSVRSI
Procedure, shortened: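 Aequorin luminescence read over 90 s after adding coelenterazine h–loaded cells (5 μM, overnight, RT) to test compound in phenol red-free DMEM/F12 buffer containing 0.1% fatty acid-free BSA. Responses integrated, scaled to the 100% signal from 100 μM digitonin or 20 μM ATP, and fitted to a sigmoidal dose-response model.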

T2 sequence (P21453 whole entry): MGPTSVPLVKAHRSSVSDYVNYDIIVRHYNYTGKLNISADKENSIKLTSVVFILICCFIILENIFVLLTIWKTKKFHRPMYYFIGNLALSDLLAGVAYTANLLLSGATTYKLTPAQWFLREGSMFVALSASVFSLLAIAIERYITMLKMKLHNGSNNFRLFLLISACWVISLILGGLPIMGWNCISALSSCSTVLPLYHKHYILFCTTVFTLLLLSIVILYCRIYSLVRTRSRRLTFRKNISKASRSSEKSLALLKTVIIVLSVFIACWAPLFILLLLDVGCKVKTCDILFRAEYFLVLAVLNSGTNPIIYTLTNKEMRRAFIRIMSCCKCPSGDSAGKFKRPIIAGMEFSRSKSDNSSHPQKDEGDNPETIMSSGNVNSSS
T1 sequence (Q9H228 whole entry): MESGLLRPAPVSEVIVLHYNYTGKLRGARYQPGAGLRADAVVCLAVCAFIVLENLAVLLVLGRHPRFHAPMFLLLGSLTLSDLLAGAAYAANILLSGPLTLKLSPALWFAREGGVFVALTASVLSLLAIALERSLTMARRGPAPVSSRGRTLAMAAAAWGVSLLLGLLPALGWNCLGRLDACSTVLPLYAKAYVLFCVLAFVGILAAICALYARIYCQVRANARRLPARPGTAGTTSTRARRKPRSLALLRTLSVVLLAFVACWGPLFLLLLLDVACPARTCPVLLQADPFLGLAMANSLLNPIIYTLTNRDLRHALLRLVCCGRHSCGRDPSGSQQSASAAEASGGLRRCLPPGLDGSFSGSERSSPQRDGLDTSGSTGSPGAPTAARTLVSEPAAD

Row | Compound | EC50 [1] [µM] | EC50 [2] [µM] | EC50 [3] [µM]
1 | N#Cc1ccc(COc2ccc3c(c2)CC2(C3)CN(CC3(C(=O)O)CC3)C2)cc1 [Example 142, 1-((5′-((4-cyanobenzyl)oxy)-1′,3′-dihydrospiro[azetidine-3,2′-inden]-1-yl)methyl)cyclopropanecarboxylic acid] | 1 to 10 | > 1 | > 1
2 | O=C(O)C1(CN2CC3(Cc4ccc(OCc5ccc(Cl)cc5)cc4C3)C2)CC1 [Example 33, 1-((5′-((4-chlorobenzyl)oxy)-1′,3′-dihydrospiro[azetidine-3,2′-inden]-1-yl)methyl)cyclopropanecarboxylic acid] | 1 to 10 | > 1 | < 1
3 | O=C(O)C1(CN2CC3(Cc4ccc(OCCc5ccc(F)cc5)cc4C3)C2)CC1 [Example 137, 1-((5′-(4-fluorophenethoxy)-1′,3′-dihydrospiro[azetidine-3,2′-inden]-1-yl)methyl)cyclopropanecarboxylic acid] | 1 to 10 | > 1 | < 1
4 | COc1cccc(Cl)c1COc1ccc2c(c1)CC1(C2)CN(CC2(C(=O)O)CC2)C1 [Example 31, 1-((5′-((2-chloro-6-methoxybenzyl)oxy)-1′,3′-dihydrospiro[azetidine-3,2′-inden]-1-yl)methyl)cyclopropanecarboxylic acid compound with 2,2,2-trifluoroacetic acid (1:1)] | 0.1 to 1 | > 1 | < 1
5 | O=C(O)C1(CN2CC3(Cc4ccc(OCCc5ccc(Cl)cc5)cc4C3)C2)CC1 [Example 55, 1-((5′-(4-chlorophenethoxy)-1′,3′-dihydrospiro[azetidine-3,2′-inden]-1-yl)methyl)cyclopropanecarboxylic acid] | 1 to 10 | > 1 | < 1
6 | O=C(O)C1(CN2CC3(Cc4ccc(OCc5ccccc5C(F)(F)F)cc4C3)C2)CC1 [Example 41, 1-((5′-((2-(trifluoromethyl)benzyl)oxy)-1′,3′-dihydrospiro[azetidine-3,2′-inden]-1-yl)methyl)cyclopropanecarboxylic acid compound with 2,2,2-trifluoroacetic acid (1:1)] | 1 to 10 | > 1 | < 1
7 | CCOc1ccc(COc2ccc3c(c2)CC2(C3)CN(C3CC(C(=O)O)C3)C2)c(F)c1F (stereo not drawn) [Example 86, 3-(5′-((4-ethoxy-2,3-difluorobenzyl)oxy)-1′,3′-dihydrospiro[azetidine-3,2′-inden]-1-yl)cyclobutanecarboxylic acid] | 1 to 10 | > 1 | < 1
8 | O=C(O)C1CC(N2CC3(Cc4ccc(OCc5cccc6c5CCC6)cc4C3)C2)C1 (stereo not drawn) [Example 83, 3-(5′-((2,3-dihydro-1H-inden-4-yl)methoxy)-1′,3′-dihydrospiro[azetidine-3,2′-inden]-1-yl)cyclobutanecarboxylic acid] | 0.01 to 0.1 | > 1 | < 1
9 | O=C(O)CN1CC2(Cc3ccc(C#Cc4ccccc4)cc3C2)C1 [Example 82, 2-(5′-(phenylethynyl)-1′,3′-dihydrospiro[azetidine-3,2′-inden]-1-yl)acetic acid] | 0.01 to 0.1 | > 1 | < 1
10 | O=C(O)C1(CN2CC3(Cc4ccc(OC5Cc6ccccc6C5)cc4C3)C2)CC1 [Example 127, 1-((5′-((2,3-dihydro-1H-inden-2-yl)oxy)-1′,3′-dihydrospiro[azetidine-3,2′-inden]-1-yl)methyl)cyclopropanecarboxylic acid] | 1 to 10 | > 1 | < 1
11 | O=C(O)C1(CN2CC3(Cc4ccc(OCc5ccc6c(c5)OCO6)cc4C3)C2)CC1 [Example 143, 1-((5′-(benzo[d][1,3]dioxol-5-ylmethoxy)-1′,3′-dihydrospiro[azetidine-3,2′-inden]-1-yl)methyl)cyclopropanecarboxylic acid] | 1 to 10 | > 1 | < 1

Next, values leading:

Row | EC50 [1] [µM] | EC50 [2] [µM] | EC50 [3] [µM] | Compound
12 | ≤ 0.01 | > 1 | < 1 | O=C(O)C1CC(N2CC3(Cc4ccc(OCc5c(Cl)cccc5Cl)cc4C3)C2)C1 (stereo not drawn) [Example 92, 3-(5′-((2,6-dichlorobenzyl)oxy)-1′,3′-dihydrospiro[azetidine-3,2′-inden]-1-yl)cyclobutanecarboxylic acid]
13 | ≤ 0.01 | > 1 | < 1 | O=C(O)CN1CC2(Cc3ccc(OCc4c(F)cccc4C(F)(F)F)cc3C2)C1 [Example 19, 2-(5′-((2-fluoro-6-(trifluoromethyl)benzyl)oxy)-1′,3′-dihydrospiro[azetidine-3,2′-inden]-1-yl)acetic acid]
14 | 0.01 to 0.1 | > 1 | < 1 | CCc1cccc(F)c1COc1ccc2c(c1)CC1(C2)CN(CC(C)CC(=O)O)C1 (stereo not drawn) [Example 65, 4-(5′-((2-ethyl-6-fluorobenzyl)oxy)-1′,3′-dihydrospiro[azetidine-3,2′-inden]-1-yl)-3-methylbutanoic acid]
15 | ≤ 0.01 | > 1 | < 1 | O=C(O)C1(CN2CC3(Cc4ccc(OCc5c(F)cccc5C(F)(F)F)cc4C3)C2)CC1 [Example 49, 1-((5′-((2-fluoro-6-(trifluoromethyl)benzyl)oxy)-1′,3′-dihydrospiro[azetidine-3,2′-inden]-1-yl)methyl)cyclopropanecarboxylic acid]
16 | ≤ 0.01 | < 1 | < 1 | CC(Oc1ccc(C#Cc2ccc3c(c2)CC2(C3)CN(C3CC(C(=O)O)C3)C2)cn1)C(F)(F)F (stereo not drawn) [Example 103, 3-(5′-((6-((1,1,1-trifluoropropan-2-yl)oxy)pyridin-3-yl)ethynyl)-1′,3′-dihydrospiro[azetidine-3,2′-inden]-1-yl)cyclobutanecarboxylic acid]
17 | ≤ 0.01 | < 1 | < 1 | CC(Oc1ccc(C#Cc2ccc3c(c2)CC2(C3)CN(CC(=O)O)C2)cn1)C(F)(F)F (stereo not drawn) [Example 79, 2-(5′-((6-((1,1,1-trifluoropropan-2-yl)oxy)pyridin-3-yl)ethynyl)-1′,3′-dihydrospiro[azetidine-3,2′-inden]-1-yl)acetic acid]
18 | ≤ 0.01 | < 1 | > 1 | CC(C)Oc1ccc(C#Cc2ccc3c(c2)CC2(C3)CN(C3CC(C(=O)O)C3)C2)cc1 (stereo not drawn) [Example 97, 3-(5′-((4-isopropoxyphenyl)ethynyl)-1′,3′-dihydrospiro[azetidine-3,2′-inden]-1-yl)cyclobutanecarboxylic acid]
